Data taken from the supplement of paper PMC11061612.

Assays:
[1] = system: COR-L95 (Small Cell Lung Carcinoma); assay: Bliss excess, mean over the matrix (fraction); higher = more synergy
Procedure, shortened: (§1)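 Cell lines grown in DMEM/F12 or RPMI with 10% FBS were plated in 1536-well plates and held 24 hours at 37°C, 5% CO2 before 72 hours of exposure to two-drug dose matrices, with DMSO typically at 0.2%. CellTiter-Glo 2.0 luminescence gave viability, which was converted to inhibition. Vehicle wells were set to 0 and blank wells to 1. Combination Emax is the second-highest inhibition in the matrix, and Bliss excess is the observed combination effect minus the expected EA + EB − EA·EB, where EA and EB are the single-agent effects.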

[2] = system: DOV13 (Ovarian Carcinoma); assay: as above
Procedure, shortened: as §1

DSH1 (Bladder Carcinoma) = assay: as above
Procedure, shortened: as §1

[3] = system: HT-29 (Colorectal Carcinoma); assay: as above
Procedure, shortened: as §1

[4] = system: IHH-4 (Thyroid Gland Carcinoma); assay: as above
Procedure, shortened: as §1

[5] = system: KATOIII (Gastric Carcinoma); assay: as above
Procedure, shortened: as §1

[6] = system: LS-513 (Colorectal Carcinoma); assay: as above
Procedure, shortened: as §1

NCI-H2595 (Mesothelioma) = assay: as above
Procedure, shortened: as §1

[7] = system: OCI-AML2 (Acute Myeloid Leukemia); assay: as above
Procedure, shortened: as §1

SK-N-FI (Neuroblastoma) = assay: as above
Procedure, shortened: as §1

SN12C (Kidney Carcinoma) = assay: as above
Procedure, shortened: as §1

[8] = system: SW1088 (Low Grade Glioma); assay: as above
Procedure, shortened: as §1

[9] = system: SW1783 (Low Grade Glioma); assay: as above
Procedure, shortened: as §1

[10] = system: G-292-Clone-A141B1 (Osteosarcoma); assay: combination Emax (second highest fraction inhibited in the dose matrix, 72 h); higher = more inhibition; extreme values may be limits of the assay
Procedure, shortened: as §1

[11] = system: KARPAS-1106P (B-Cell Non-Hodgkin's Lymphoma); assay: as above
Procedure, shortened: as §1

[12] = system: LS-513 (Colorectal Carcinoma); assay: as above
Procedure, shortened: as §1

[13] = system: MDA-MB-157 (Breast Carcinoma); assay: as above
Procedure, shortened: as §1

[14] = system: NCI-H211 (Small Cell Lung Carcinoma); assay: as above
Procedure, shortened: as §1

[15] = system: OCI-AML2 (Acute Myeloid Leukemia); assay: as above
Procedure, shortened: as §1

[16] = system: U-266 (Plasma Cell Myeloma); assay: as above
Procedure, shortened: as §1
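Throughout, for Bliss excess, mean over the matrix: after 72 h of two-drug dosing.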

With `C[C@@H](Nc1cc(F)cc(F)c1)c1cc(C(=O)N(C)C)cc2c(=O)cc(N3CCOCC3)oc12` [AZD8186] + CC(=O)c1c(C)c2cnc(Nc3ccc(N4CCNCC4)cn3)nc2n(C2CCCC2)c1=O [Palbociclib] (first compound max 10 µM, 7x7, partner max 10 µM) the Bliss excess [1] was -0.0215, the Bliss excess [2] was -0.224 and the Bliss excess (DSH1 (Bladder Carcinoma)) was 0.104. For the same compound, the Bliss excess [3] was 0.0614, the Bliss excess [4] was 0.125 and the Bliss excess [5] was 0.0615. For the same compound, the Bliss excess [6] was 0.0084, the Bliss excess (NCI-H2595 (Mesothelioma)) was -0.0917 and the Bliss excess [7] was 0.132. The Bliss excess (SK-N-FI (Neuroblastoma)) was 0.0089, the Bliss excess (SN12C (Kidney Carcinoma)) was 0.0245 and the Bliss excess [8] was 0.0658. For the same compound, the Bliss excess [9] was 0.0594, the “combination Emax” value [10] was 0.428 and the “combination Emax” value [11] was 0.791. The “combination Emax” value [12] was 0.584, the “combination Emax” value [13] was 0.333 and the “combination Emax” value [14] was 0.754. For the same compound, the “combination Emax” value [15] was 0.834 and the “combination Emax” value [16] was 0.155.
In the case of `C[C@@H](Oc1cc(-c2cnn(C3CCNCC3)c2)cnc1N)c1c(Cl)ccc(F)c1Cl` [Crizotinib] + CC1=C(C(=CC=C1)Cl)NC(=O)C2=CN=C(S2)NC3=CC(=NC(=N3)C)N4CCN(CC4)CCO [Dasatinib] (first compound max 10 µM, 7x7, partner max 2 µM), the Bliss excess [1] was -0.0662, the Bliss excess [2] was 0.067 and the Bliss excess (DSH1 (Bladder Carcinoma)) was -0.0536. The Bliss excess [3] was -0.0002, the Bliss excess [4] was 0.0456 and the Bliss excess [5] was -0.0263. For the same compound, the Bliss excess [6] was -0.0485, the Bliss excess (NCI-H2595 (Mesothelioma)) was 0.0519 and the Bliss excess [7] was -0.0271. For the same compound, the Bliss excess (SK-N-FI (Neuroblastoma)) was -0.0425, the Bliss excess (SN12C (Kidney Carcinoma)) was -0.0384 and the Bliss excess [8] was 0.016. The Bliss excess [9] was 0.103, the “combination Emax” value [10] was 0.762 and the “combination Emax” value [11] was 0.954. The “combination Emax” value [12] was 0.978, the “combination Emax” value [13] was 0.303 and the “combination Emax” value [14] was 0.964. The “combination Emax” value [15] was 0.826 and the “combination Emax” value [16] was 0.499.
In the case of `C[C@@H](Oc1cc(-c2cnn(C3CCNCC3)c2)cnc1N)c1c(Cl)ccc(F)c1Cl` [Crizotinib] + Cn1cnc2c(F)c(Nc3ccc(Br)cc3Cl)c(C(=O)NOCCO)cc21 [Selumetinib] (first compound max 10 µM, 7x7, partner max 10 µM), the Bliss excess [1] was -0.0955, the Bliss excess [2] was -0.0732 and the Bliss excess (DSH1 (Bladder Carcinoma)) was -0.117. The Bliss excess [3] was -0.018, the Bliss excess [4] was -0.0246 and the Bliss excess [5] was -0.0081. The Bliss excess [6] was -0.0167, the Bliss excess (NCI-H2595 (Mesothelioma)) was -0.064 and the Bliss excess [7] was -0.0036. The Bliss excess (SK-N-FI (Neuroblastoma)) was 0.0321, the Bliss excess (SN12C (Kidney Carcinoma)) was -0.0062 and the Bliss excess [8] was -0.0256. For the same compound, the Bliss excess [9] was -0.0486, the “combination Emax” value [10] was 0.794 and the “combination Emax” value [11] was 0.953. For the same compound, the “combination Emax” value [12] was 1, the “combination Emax” value [13] was 0.243 and the “combination Emax” value [14] was 0.943. For the same compound, the “combination Emax” value [15] was 1 and the “combination Emax” value [16] was 0.624.
`CS(=O)(=O)CCNCc1ccc(-c2ccc3ncnc(Nc4ccc(OCc5cccc(F)c5)c(Cl)c4)c3c2)o1` [Lapatinib] + Cn1cnc2c(F)c(Nc3ccc(Br)cc3Cl)c(C(=O)NOCCO)cc21 [Selumetinib] (first compound max 10 µM, 7x7, partner max 10 µM) was tested, and the Bliss excess [1] was -0.0382, the Bliss excess [2] was -0.0166 and the Bliss excess (DSH1 (Bladder Carcinoma)) was -0.067. It also gave a Bliss excess [3] of 0.0362, a Bliss excess [4] of -0.0136 and a Bliss excess [5] of -0.0223. For the same compound, the Bliss excess [6] was -0.054, the Bliss excess (NCI-H2595 (Mesothelioma)) was -0.0548 and the Bliss excess [7] was -0.0296. For the same compound, the Bliss excess (SK-N-FI (Neuroblastoma)) was 0.0179, the Bliss excess (SN12C (Kidney Carcinoma)) was -0.0375 and the Bliss excess [8] was -0.0524. The Bliss excess [9] was -0.0252, the “combination Emax” value [10] was 0.192 and the “combination Emax” value [11] was 0.617. The “combination Emax” value [12] was 0.949, the “combination Emax” value [13] was 0.262 and the “combination Emax” value [14] was 0.876. The “combination Emax” value [15] was 1 and the “combination Emax” value [16] was 0.621.
In the case of `CS(=O)(=O)CCNCc1ccc(-c2ccc3ncnc(Nc4ccc(OCc5cccc(F)c5)c(Cl)c4)c3c2)o1` [Lapatinib] + NC1(c2ccc(-c3nc4ccn5c(=O)[nH]nc5c4cc3-c3ccccc3)cc2)CCC1 [MK-2206] (first compound max 10 µM, 7x7, partner max 10 µM), the Bliss excess [1] was 0.0048, the Bliss excess [2] was 0.0362 and the Bliss excess (DSH1 (Bladder Carcinoma)) was 0.0917. It also gave a Bliss excess [3] of 0.0084, a Bliss excess [4] of 0.0087 and a Bliss excess [5] of 0.0226. The Bliss excess [6] was -0.0396, the Bliss excess (NCI-H2595 (Mesothelioma)) was -0.0559 and the Bliss excess [7] was 0.0419. It also gave a Bliss excess (SK-N-FI (Neuroblastoma)) of -0.0027, a Bliss excess (SN12C (Kidney Carcinoma)) of -0.0236 and a Bliss excess [8] of 0.0163. The Bliss excess [9] was -0.0201, the “combination Emax” value [10] was 0.468 and the “combination Emax” value [11] was 0.666. For the same compound, the “combination Emax” value [12] was 0.951, the “combination Emax” value [13] was 0.273 and the “combination Emax” value [14] was 0.944. For the same compound, the “combination Emax” value [15] was 0.912 and the “combination Emax” value [16] was 0.352.
For `O=C(c1cc(Cc2n[nH]c(=O)c3ccccc23)ccc1F)N1CCN(C(=O)C2CC2)CC1` [Olaparib] + CC1(C)CCC(CN2CCN(c3ccc(C(=O)NS(=O)(=O)c4ccc(NCC5CCOCC5)c([N+](=O)[O-])c4)c(Oc4cnc5[nH]ccc5c4)c3)CC2)=C(c2ccc(Cl)cc2)C1 [Venetoclax] (first compound max 10 µM, 7x7, partner max 1 µM), the Bliss excess [1] was 0.0791, the Bliss excess [2] was -0.0322 and the Bliss excess (DSH1 (Bladder Carcinoma)) was -0.0401. For the same compound, the Bliss excess [3] was -0.0304, the Bliss excess [4] was -0.0118 and the Bliss excess [5] was -0.0146. It also gave a Bliss excess [6] of -0.0498, a Bliss excess (NCI-H2595 (Mesothelioma)) of -0.0577 and a Bliss excess [7] of 0.0964. The Bliss excess (SK-N-FI (Neuroblastoma)) was -0.0527, the Bliss excess (SN12C (Kidney Carcinoma)) was -0.0534 and the Bliss excess [8] was -0.0611. The Bliss excess [9] was -0.0349, the “combination Emax” value [10] was 0.0374 and the “combination Emax” value [11] was 0.402. The “combination Emax” value [12] was 0.18, the “combination Emax” value [13] was 0.165 and the “combination Emax” value [14] was 0.99. The “combination Emax” value [15] was 0.99 and the “combination Emax” value [16] was 0.248.
For `O=C(c1cc(Cc2n[nH]c(=O)c3ccccc23)ccc1F)N1CCN(C(=O)C2CC2)CC1` [Olaparib] + CN(CC[C@H](CSC1=CC=CC=C1)NC2=C(C=C(C=C2)S(=O)(=O)NC(=O)C3=CC=C(C=C3)N4CCC(CC4)[C@H](C5=CC=CC=C5C6=CC=C(C=C6)Cl)O)S(=O)(=O)C(F)(F)F)CCO [AZD4320] (first compound max 10 µM, 7x7, partner max 1 µM), the Bliss excess [1] was 0.0593, the Bliss excess [2] was 0.0543 and the Bliss excess (DSH1 (Bladder Carcinoma)) was 0.0308. For the same compound, the Bliss excess [3] was -0.0278, the Bliss excess [4] was -0.0368 and the Bliss excess [5] was -0.0047. For the same compound, the Bliss excess [6] was -0.0326, the Bliss excess (NCI-H2595 (Mesothelioma)) was -0.045 and the Bliss excess [7] was 0.041. For the same compound, the Bliss excess (SK-N-FI (Neuroblastoma)) was -0.0374, the Bliss excess (SN12C (Kidney Carcinoma)) was -0.0401 and the Bliss excess [8] was -0.0518. For the same compound, the Bliss excess [9] was -0.0391, the “combination Emax” value [10] was 0.419 and the “combination Emax” value [11] was 0.498. For the same compound, the “combination Emax” value [12] was 0.452, the “combination Emax” value [13] was 0.216 and the “combination Emax” value [14] was 1. For the same compound, the “combination Emax” value [15] was 1 and the “combination Emax” value [16] was 0.631.
